Measurements taken from patent publication US7202282B2, “Microemulsions for selective molecular separation” (University of Florida, priority 2002, dated 2007).

Experiment: selective molecular separation (partitioning) of local anesthetics by a microemulsion having an electron deficient aromatic ring
Format: physicochemical
Settings: microemulsion with electron deficient ring oil, e.g. 1,3 di(trifluoromethyl) benzene
Excerpt: In one embodiment, the materials and/or methods of the subject invention can be used to separate drugs of the same class. A specific embodiment involves separating local anesthetics. […] This is accomplished by exploiting differences in electron density in π electron orbitals.
In these molecules, the π electron orbitals are aligned at right angles to the planar surface of the benzene rings. Differences in substitution by the side chain in cocaine or bupivacaine cause either electron depletion (δ^+) or enrichment (δ^−). Such characteristics can be used to selectively separate these molecules.
According to the subject invention, any oil or “mating” molecule with a benzene ring is acceptable in providing a microemulsion system, as long as the substitutions are electron withdrawing from the benzene ring into the side chains. In this case, the electron deficient ring is a component of a molecule (e.g., 1,3 di(trifluoromethyl) benzene) that, at room and physiological temperatures, is an oil (FIG. 3). Thus, these oil molecules can be used to construct the lipid core of a microemulsion or may be added as solutes into the lipid core of a microemulsion wherein another oil serves as the lipid core.

CCCCN1CCCCC1C(=O)Nc1c(C)cccc1C (stereo not shown) [bupivacaine]
partitioning into the microemulsion (molecular separation, FIG. 4): selectively partition
